{"source": "patent US12446582B2", "about": "(priority 2018, dated 2025)", "system": "Fusarium pseudograminearum", "key": {"[1]": {"conditions": "average of 5 trials, compared to untreated T1"}, "[2]": {"conditions": "average of 5 trials, compared to untreated T1, listed as T2"}, "[3]": {"conditions": "average of 5 trials, untreated T1 = 100.00"}}, "note": "Entries after “also recorded” stand apart in the source; their conditions may differ. Read-outs that look alike come from different tables or passages of the source.", "protocol": "5 wheat trial locations were selected across the main wheat growing areas of Australia. All five sites have a history of crown rot and high stubble load coming out of susceptible rotation crop. Soil samples were taken to confirm the pathogen pressure. The seeds were treated with a Rotostat Seed Treater with 800 ml slurry volume per 100 kg of seeds. Planting for the trials took place between 2 June and 14 June using a 6 to 8 row planter. The number of plants was counted 35-65 days after sowing on 2×5 m row. The number of wheat plants with white heads per plot was assessed at full ripe and recorded as % compared to the untreated plants which were taken as reference. Yield grain data was taken at the end of the season."}
{"molecule": "O=C(NC1CCC1c1ccc(Cl)cc1Cl)c1cccnc1C(F)(F)F", "note": "(stereo not drawn) [Compound 1]", "values": [{"measurement": "Final emergence counts % increase compared to T1", "setting": "[1]", "result": 7.52, "unit": "%"}, {"measurement": "Plot yields % increase compared to T1", "setting": "[1]", "result": 26, "unit": "%"}, {"measurement": "White heads % reduction compared to T1", "setting": "[1]", "result": 34, "unit": "%"}, {"measurement": "Plot yields % increase compared to T1", "setting": "[2]", "result": 26.32, "unit": "%"}, {"measurement": "White heads % reduction compared to T1", "setting": "[2]", "result": 34.20, "unit": "%"}, {"measurement": "White heads Average", "setting": "average of 5 trials, % compared to untreated T1 = 100.00", "result": 66.80, "unit": "%"}, {"measurement": "Final emergence counts Average", "setting": "[3]", "result": 107.52}, {"measurement": "Plot yields Average", "setting": "[3]", "result": 126.32}, {"measurement": "White heads AR0T020", "setting": "trial AR0T020, Merredin, WA, variety Cobra, seed treatment, % compared to untreated T1 = 100.00, at full ripe", "result": 32.86, "unit": "%"}, {"measurement": "Plot yields AR0T020", "setting": "trial AR0T020, Merredin, WA, variety Cobra, seed treatment, full plot harvest, untreated T1 = 100.00", "result": 127.83}, {"measurement": "Final emergence counts AR0T020", "setting": "trial AR0T020, Merredin, WA, variety Cobra, seed treatment, untreated T1 = 100.00", "result": 101.87}, {"measurement": "White heads AR0T021", "setting": "trial AR0T021, Tammin, WA, variety Cobra, seed treatment, % compared to untreated T1 = 100.00, at full ripe", "result": 28.45, "unit": "%"}, {"measurement": "Plot yields AR0T021", "setting": "trial AR0T021, Tammin, WA, variety Cobra, seed treatment, full plot harvest, untreated T1 = 100.00", "result": 107.62}, {"measurement": "Final emergence counts AR0T021", "setting": "trial AR0T021, Tammin, WA, variety Cobra, seed treatment, untreated T1 = 100.00", "result": 118.36}, {"measurement": "White heads DL0T013", "setting": "trial DL0T013, Bunnaloo, NSW, variety Aurora (Durum), seed treatment, % compared to untreated T1 = 100.00, at full ripe", "result": 92.59, "unit": "%"}, {"measurement": "Plot yields DL0T013", "setting": "trial DL0T013, Bunnaloo, NSW, variety Aurora (Durum), seed treatment, full plot harvest, untreated T1 = 100.00", "result": 116.90}, {"measurement": "Final emergence counts DL0T013", "setting": "trial DL0T013, Bunnaloo, NSW, variety Aurora (Durum), seed treatment, untreated T1 = 100.00", "result": 100.80}, {"measurement": "White heads GS0T007", "setting": "trial GS0T007, Redhill, SA, variety Saintly (Durum), seed treatment, % compared to untreated T1 = 100.00, at full ripe", "result": 74.52, "unit": "%"}, {"measurement": "Plot yields GS0T007", "setting": "trial GS0T007, Redhill, SA, variety Saintly (Durum), seed treatment, full plot harvest, untreated T1 = 100.00", "result": 162.86}, {"measurement": "Final emergence counts GS0T007", "setting": "trial GS0T007, Redhill, SA, variety Saintly (Durum), seed treatment, untreated T1 = 100.00", "result": 113.09}, {"measurement": "White heads N10T669", "setting": "trial N10T669, Bellata, NSW, variety Lillaroi (Durum), seed treatment, % compared to untreated T1 = 100.00, at full ripe", "result": 105.57, "unit": "%"}, {"measurement": "Plot yields N10T669", "setting": "trial N10T669, Bellata, NSW, variety Lillaroi (Durum), seed treatment, full plot harvest, untreated T1 = 100.00", "result": 116.41}, {"measurement": "Final emergence counts N10T669", "setting": "trial N10T669, Bellata, NSW, variety Lillaroi (Durum), seed treatment, untreated T1 = 100.00", "result": 103.48}, {"measurement": "yield increase compared to other commercial treatments (in words)", "setting": "wheat seed treatment, compared to commercial treatments T3-T5", "result": "more than double; also recorded: more than twice as much"}]}
